The experiment has as its system P. methanolica cells (strain CBS6515), UV-mutagenized. Briefly: Nystatin enrichment for auxotrophic mutants; titering of colony forming units of treated versus control cells. Format: cell-based, Pichia methanolica. The settings on record: 1 mg nystatin added to remainder of 500 ml culture (50 ml set aside as control) in minimal broth with 5 g/L ammonium sulfate, 1 additional hour with shaking. How it is done: Large-scale mutagenesis was then carried out using a 2-second UV exposure to provide about 20% killing. Cells were plated at approximately 10^4 cells/plate onto eight YEPD plates that were supplemented with 100 mg/L each of uracil, adenine, and leucine, which were added to supplement the growth of potential auxotrophs having the cognate deficiencies. Following UV exposure the plates were wrapped in foil and incubated overnight at 30° C. The following day the colonies on the plates (~10^5 total) were resuspended in water and washed once with water. An amount of cell suspension sufficient to give an OD600 of 0.1-0.2 was used to inoculate 500 ml of minimal broth made with yeast nitrogen base without amino acids or ammonia, supplemented with 1% glucose and 400 μg/L biotin. The culture was placed in a 2.8 L baffled Bell flask and shaken vigorously overnight at 30° C. The following day the cells had reached an OD600 of ~1.0-2.0. The cells were pelleted and resuspended in 500 ml of minimal broth supplemented with 5 g/L ammonium sulfate. The cell suspension was placed in a 2.8 L baffled Bell flask and shaken vigorously at 30° C. for 6 hours. 50 ml of the culture was set aside in a 250-ml flask as a control, and to the remainder of the culture was added 1 mg nystatin (Sigma Chemical Co., St. Louis, Mo.) to select for auxotrophic mutants (Snow, Nature 211:206-207, 1966). […]

As for `C[C@@H]1[C@H](O)[C@@H](C)/C=C/C=C/CC/C=C/C=C/C=C/C=C/C(O[C@H]2O[C@H](C)[C@@H](O)[C@H](N)[C@@H]2O)CC2O[C@](O)(CC(O)C(O)CCC(O)CC(O)CC(O)CC(=O)O[C@H]1C)CC(O)C2C(=O)O` (stereo partly shown) [nystatin], the “decrease in the number of viable cells (colony forming units) by a factor” value is 10^4.
